Assay results: US9186402B2 (Colorado State University Research Foundation, priority 2008, dated 2015)
Read-outs that look alike come from different tables or passages of the source. Values belong to the compound of their own block, whether it stands above or below them.

What was measured:
[1] = molecular target: T1, HDAC2 (Homo sapiens, UniProt Q92769); test: HDAC2 inhibition, trypsin-coupled kinetic fluorescence homogeneous assay; format: biochemical
Description: To measure the inhibitory effect on deacetylase function in vitro, a continuous kinetic biochemical assay miniaturized to 384-well plate format was optimized.
Fluorescence measurements were obtained in real-time on a Varioskan microtiter plate reader (Thermo). Triplicate experimental data from incubations with inhibitor were normalized to solvent-only wells and analyzed by logistic regression (Spotfire DecisionSite).
A biochemical study of HDAC2 inhibition was carried out using the trypsin-coupled, kinetic fluorescence homogeneous assay described above.

[2] = molecular target: HDAC3/NCor2 (Homo sapiens, UniProt O15379); test: HDAC biochemical assay (IC50), 384-well homogeneous; settings: read-out: Biochemical inhibition of human HDACs (IC50) HDAC3
Description: (§1) The inhibitory effect of compounds on deacetylase isoenzyme function was determined in vitro using an optimized homogenous assay performed in 384-well plate format. […] Data are analyzed on a plate-by-plate basis for the linear range of fluorescence over time. Data from the plate capture corresponding to the mid-linear range is imported into analytical software and annotated with well identity and compound concentration (Spotfire DecisionSite). Replicate experimental data from incubations with inhibitor are normalized to control, solvent-only wells and IC-50 is deteremined by logistic regression.
(§2) A liquid handling device then transferred a tripeptide substrate terminating in acetyl-lysine and amide conjugated to 4-methyl-7-aminocoumarin (AMC), recombinant human histone deacetylase (BPS Bioscience, San Diego, Calif.), and recombinant human trypsin (Sigma-Aldrich, St. Louis, Mo.). Following deacetylase hydrolysis of acetyl-lysine, trypsin cleavage liberated the AMC fluorophore. Kinetic (fluorescence per unit time) and end-point (total fluorescence) data were captured by a multilabel plate reader. Replicate data were analyzed by curve-fit using logistic regression (Snotfire Decision—Site).

[3] = molecular target: T1, HDAC2; test: as above; settings: reducing conditions (TCEP 200 μM); read-out: Biochemical inhibition of human HDACs (IC50) HDAC2
Description: as §1, §2

[4] = molecular target: HDAC1 (Homo sapiens, UniProt Q13547); test: as above; settings: reducing conditions (TCEP 200 μM); read-out: Biochemical inhibition of human HDACs (IC50) HDAC1
Description: as §1, §2

[5] = molecular target: T2, HDAC6 (Homo sapiens, UniProt Q9UBN7); test: as above; settings: read-out: Biochemical inhibition of human HDACs (IC50) HDAC6
T2 sequence (Q9UBN7 1-1215): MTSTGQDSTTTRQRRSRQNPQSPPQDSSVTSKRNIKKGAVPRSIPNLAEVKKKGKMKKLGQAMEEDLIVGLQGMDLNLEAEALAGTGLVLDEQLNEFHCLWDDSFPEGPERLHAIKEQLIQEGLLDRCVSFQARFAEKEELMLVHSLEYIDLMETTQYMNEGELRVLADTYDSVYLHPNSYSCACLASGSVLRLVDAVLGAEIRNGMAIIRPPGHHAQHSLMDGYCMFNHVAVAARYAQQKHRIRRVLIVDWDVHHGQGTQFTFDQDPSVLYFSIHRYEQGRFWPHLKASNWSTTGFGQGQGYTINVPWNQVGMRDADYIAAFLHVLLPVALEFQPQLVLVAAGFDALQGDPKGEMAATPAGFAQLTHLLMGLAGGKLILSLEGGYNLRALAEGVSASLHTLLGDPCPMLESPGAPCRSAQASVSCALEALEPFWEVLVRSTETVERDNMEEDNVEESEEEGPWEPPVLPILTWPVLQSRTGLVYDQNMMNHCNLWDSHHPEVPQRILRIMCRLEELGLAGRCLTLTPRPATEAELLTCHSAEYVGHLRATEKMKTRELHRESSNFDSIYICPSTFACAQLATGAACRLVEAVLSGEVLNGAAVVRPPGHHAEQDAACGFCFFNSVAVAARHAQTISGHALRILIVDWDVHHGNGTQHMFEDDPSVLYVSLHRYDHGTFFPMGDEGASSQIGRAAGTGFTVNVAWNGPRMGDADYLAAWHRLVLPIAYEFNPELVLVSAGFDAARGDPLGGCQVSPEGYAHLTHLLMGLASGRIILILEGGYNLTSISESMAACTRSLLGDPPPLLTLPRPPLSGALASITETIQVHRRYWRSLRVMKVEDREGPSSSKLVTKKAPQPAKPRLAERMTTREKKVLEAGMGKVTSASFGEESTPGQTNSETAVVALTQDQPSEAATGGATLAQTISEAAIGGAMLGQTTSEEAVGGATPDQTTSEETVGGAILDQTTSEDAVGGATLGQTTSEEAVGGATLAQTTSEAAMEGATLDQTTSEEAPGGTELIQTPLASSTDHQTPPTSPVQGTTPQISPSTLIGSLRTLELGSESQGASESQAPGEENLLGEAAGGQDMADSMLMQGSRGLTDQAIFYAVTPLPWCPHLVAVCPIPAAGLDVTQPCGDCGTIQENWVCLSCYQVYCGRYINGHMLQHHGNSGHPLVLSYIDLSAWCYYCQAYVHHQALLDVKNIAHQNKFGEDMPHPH
Description: as §1, §2

[6] = amide bond, HATU, CH3CN
[7] = system: HDACs 1, 2 and 3; test: HDAC biochemical assay, summary statements on Class I HDACs; parameters: species or system human
[8] = system: human malignant melanoma cell lines; test: cell viability by ATP content (Cell TiterGlo), melanoma panel; format: cell-based; settings: range over panel of human malignant melanoma cell lines, read-out: IC50 melanoma cell proliferation / viability
[9] = reducing conditions (TCEP 200 μM)
[10] = HDAC2, logistic fit of scatter plots, Conc (uM), read-out: X50 (curve fit, activity versus concentration)

Chain of HDAC1 (Q13547 whole entry): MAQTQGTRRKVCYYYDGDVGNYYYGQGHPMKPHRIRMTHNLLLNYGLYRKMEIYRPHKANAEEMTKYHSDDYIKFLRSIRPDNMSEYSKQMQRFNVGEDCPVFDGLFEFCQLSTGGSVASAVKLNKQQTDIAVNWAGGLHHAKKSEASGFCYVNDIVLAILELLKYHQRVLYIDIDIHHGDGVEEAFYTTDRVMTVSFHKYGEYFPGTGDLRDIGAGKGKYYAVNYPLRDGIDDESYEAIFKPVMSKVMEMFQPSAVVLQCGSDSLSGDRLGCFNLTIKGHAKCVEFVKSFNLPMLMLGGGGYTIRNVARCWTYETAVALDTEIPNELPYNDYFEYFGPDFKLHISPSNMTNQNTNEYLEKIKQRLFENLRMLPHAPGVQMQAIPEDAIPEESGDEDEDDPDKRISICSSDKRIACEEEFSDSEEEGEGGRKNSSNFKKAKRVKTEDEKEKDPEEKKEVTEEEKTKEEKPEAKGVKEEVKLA
T1 sequence (Q92769 whole entry): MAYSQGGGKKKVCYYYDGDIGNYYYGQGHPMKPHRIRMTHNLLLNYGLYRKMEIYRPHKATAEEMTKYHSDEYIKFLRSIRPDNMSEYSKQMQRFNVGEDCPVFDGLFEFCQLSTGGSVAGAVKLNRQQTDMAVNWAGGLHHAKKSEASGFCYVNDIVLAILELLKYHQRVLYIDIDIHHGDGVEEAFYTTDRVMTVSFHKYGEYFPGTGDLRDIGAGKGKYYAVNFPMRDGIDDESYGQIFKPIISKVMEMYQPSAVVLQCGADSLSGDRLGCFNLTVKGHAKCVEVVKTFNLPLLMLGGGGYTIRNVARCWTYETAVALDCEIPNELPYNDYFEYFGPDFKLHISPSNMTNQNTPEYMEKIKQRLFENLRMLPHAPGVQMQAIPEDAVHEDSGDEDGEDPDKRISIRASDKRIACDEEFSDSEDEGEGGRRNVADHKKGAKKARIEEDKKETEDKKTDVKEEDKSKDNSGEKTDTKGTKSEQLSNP
Chain of HDAC3/NCor2 (O15379 whole entry): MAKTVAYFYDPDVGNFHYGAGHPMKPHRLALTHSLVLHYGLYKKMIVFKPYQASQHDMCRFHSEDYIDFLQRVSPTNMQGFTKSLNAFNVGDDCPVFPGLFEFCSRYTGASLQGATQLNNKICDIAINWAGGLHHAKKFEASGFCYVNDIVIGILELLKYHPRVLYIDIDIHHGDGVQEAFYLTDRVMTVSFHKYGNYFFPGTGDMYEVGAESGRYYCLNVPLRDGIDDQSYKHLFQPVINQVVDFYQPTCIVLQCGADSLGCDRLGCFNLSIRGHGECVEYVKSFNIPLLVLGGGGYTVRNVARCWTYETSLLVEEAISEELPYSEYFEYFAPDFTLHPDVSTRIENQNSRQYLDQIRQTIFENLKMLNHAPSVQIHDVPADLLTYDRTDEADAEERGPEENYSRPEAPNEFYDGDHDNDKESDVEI
Chain of HDAC3/NCor2 (Q9Y618 395-489 partner limits assumed): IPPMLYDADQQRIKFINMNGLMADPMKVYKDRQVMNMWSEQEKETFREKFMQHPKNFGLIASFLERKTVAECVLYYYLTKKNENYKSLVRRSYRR

Structure (SMILES): C[C@@]12CSC(=N1)c1csc(n1)CNC(=O)C[C@@H](/C=C/CCS)OC(=O)[C@@H]1CCCN1C2=O [Proline substitution (4)]
X50 (curve fit, activity versus concentration) [1]: X50 = 0.7733 uM
IC50 [2]: 580 nM
IC50 [3]: 800 nM
IC50 [4]: 110 nM
IC50 [5]: 13000 nM

Structure (SMILES): CC(C)[C@H]1NC(=O)[C@@]2(C)CSC(=N2)c2csc(n2)CNC(=O)C[C@H](/C=C/CCSC(c2ccccc2)(c2ccccc2)c2ccccc2)OC1=O
ring closure, yield of all isomers ([6]; from CC(C)[C@@H](NC(=O)[C@@]1(C)CSC(c2csc(CNC(=O)OC(C)(C)C)n2)=N1)C(=O)O[C@@H](/C=C/CCSC(c1ccccc1)(c1ccccc1)c1ccccc1)CC(=O)OCC[Si](C)(C)C, 2 steps): 87%

IC50 [2, 9]: 1.1 nM
IC50 [5, 9]: 29 nM
Structure (SMILES): CC(C)C1NC(=O)C2(C)CSC(=N2)c2cccc(n2)CNC(=O)CC(C=CCCS)OC1=O (stereo not shown) [Thiazole-pyridine substitution (29b)]
activity against Class I HDACs [7]: sub-nanomolar

Structure (SMILES): C[C@@]12CSC(=N1)c1csc(n1)CNC(=O)C[C@@H](/C=C/CCSC(c1ccccc1)(c1ccccc1)c1ccccc1)OC(=O)[C@@H]1CCCN1C2=O
ring closure, yield of all isomers ([6]; from CC(C)(C)OC(=O)NCc1nc(C2=N[C@](C)(C(=O)N3CCC[C@H]3C(=O)O[C@H](/C=C/CCSC(c3ccccc3)(c3ccccc3)c3ccccc3)CC(=O)OCC[Si](C)(C)C)CS2)cs1, 0.83 mM, […], 2 steps): 43%

Structure (SMILES): CC(C)[C@@H]1NC(=O)[C@]2(C)CSC(=N2)c2csc(n2)CNC(=O)C[C@@H](/C=C/CCSC(c2ccccc2)(c2ccccc2)c2ccccc2)NC1=O
ring closure, yield of all isomers ([6]; from COC(=O)C[C@@H](/C=C/CCSC(c1ccccc1)(c1ccccc1)c1ccccc1)NC(=O)[C@@H](NC(=O)[C@]1(C)CSC(c2csc(CNC(=O)OC(C)(C)C)n2)=N1)C(C)C, 0.94 mM, […], 3 steps): 50%

IC50 [1, 10]: 2.69 µM
Structure (SMILES): CCCCCCCC(=O)SCCCCC=CC1CC(=O)NCc2nc(cs2)C2=NC(C)(CS2)C(=O)NC(C(C)C)C(=O)O1 (stereo not shown) [ab6_162b]

IC50 [3]: 120 nM
Structure (SMILES): CC(C)[C@@H]1NC(=O)c2csc(n2)-c2csc(n2)CNC(=O)C[C@@H](/C=C/CCS)OC1=O [Thiazole-thiazole (23b)]

Structure (SMILES): CCCCCCCC(=O)SCC/C=C/[C@@H]1CC(=O)NCc2nc(cs2)C2=N[C@@](C)(CS2)C(=O)N[C@@H](C(C)C)C(=O)O1 [largazole (1), largazole, reference compound]
IC50 [1]: 7.14 µM
IC50 [8]: 45 to 315 nM

IC50 [2, 9]: > 30000 nM
IC50 [3]: > 30000 nM
IC50 [4]: > 30000 nM
IC50 [5, 9]: > 30000 nM
Structure (SMILES): CC(C)[C@@H]1NC(=O)[C@]2(C)CSC(=N2)c2csc(n2)CNC(=O)C[C@@H](C/C=C\CCC(=O)O)OC1=O [Largazole-Azumamide hybrid (9b)]

IC50 [2, 9]: 3.8 nM
IC50 [3]: 4.8 nM
IC50 [4]: 1.9 nM
IC50 [5, 9]: 130 nM
Structure (SMILES): CC(C)C1NC(=O)C2CSC(=N2)c2csc(n2)CNC(=O)CC(C=CCCS)OC1=O (stereo not shown) [Cysteine substitution 22b]

X50 (curve fit, activity versus concentration) ([1]; HDAC2, logistic fit of scatter plots, Conc (uM)): X50 = 1.677E12 uM
Structure (SMILES): CCCCCCCC(=O)SCC/C=C/[C@@H]1CC(=O)NCc2nc(cs2)C2=N[C@@](C)(CS2)C(=O)N[C@@H](C(C)C)C(=O)N1 [ab6_1236 acyl amide]

IC50 [1, 10]: 708 µM
Structure (SMILES): CCCCCCCC(=O)SCC/C=C/[C@@H]1CC(=O)NCc2nc(cs2)C2=N[C@@](C)(CS2)C(=O)N2CCC[C@H]2C(=O)O1 [ab6_161b Proline acyl]
